This note sets out measurements from patent US9296711B2, “Substituted isoxazole amide compounds as inhibitors of stearoyl-CoA desaturase 1 (SCD1)” (Hoffman-La Roche Inc., priority 2012, dated 2016).

One data set addresses T1, SCD1 (Mus musculus, UniProt P13516).
T1 construct: Mouse liver microsomes, prepared from mice fed a high-carbohydrate diet, were a source of the SCD; from tissue; host or cells: mouse liver microsomes (mice fed a high-carbohydrate diet)
T1 sequence (P13516 1-355): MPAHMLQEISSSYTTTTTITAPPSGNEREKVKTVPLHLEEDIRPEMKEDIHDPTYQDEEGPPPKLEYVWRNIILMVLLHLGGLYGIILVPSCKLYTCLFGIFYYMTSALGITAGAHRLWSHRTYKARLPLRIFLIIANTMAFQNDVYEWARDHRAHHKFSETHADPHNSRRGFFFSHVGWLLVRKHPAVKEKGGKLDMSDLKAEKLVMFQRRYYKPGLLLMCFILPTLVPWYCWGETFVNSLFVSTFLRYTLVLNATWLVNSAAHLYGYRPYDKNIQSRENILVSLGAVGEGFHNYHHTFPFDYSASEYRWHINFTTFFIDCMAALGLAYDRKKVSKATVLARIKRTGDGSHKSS
Description: SCD assay: release of tritiated water from desaturation of 9,10-3H-stearoyl CoA by mouse liver microsomes. Format: biochemical. Conditions: mouse liver microsomes as SCD source; 300 nM (9,10)3H-stearoyl CoA; 25 minutes at room temperature; read-out: IC50 (in vitro inhibition of SCD1). The source says:
Stearoyl CoA desaturase activity was monitored by a modification of the acyl carrier protein assay described by B. R. Talamo and K. Bloch in Anal. Biochem. 1968, 29, 300-304. The SCD assay monitors the release of tritiated water from the desaturation of 9,10-^3H-stearoyl CoA.
Mouse liver microsomes, prepared from mice fed a high-carbohydrate diet, were a source of the SCD and cyt b5 and cyt b5 reductase, necessary accessory proteins for the coupled reaction. Reaction mixtures for compound titrations contained 50 mM Tris HCl pH 7.5, 100 mM NaCl, 0.165 mg/ml BSA, 2.4% DMSO, 1 mM NADH, 0.03% T-20, and 300 nM (9,10)^3H-stearoyl CoA (Perkin-Elmer). Reactions were initiated upon the addition of 4 ug/ml SCD microsomes. Incubations were terminated after 25 minutes at room temperature with cold 6% TCA. After standing 10 minutes at 4° C., samples were centrifuged 15 minutes at 4000 rpm to pellet precipitated protein. Supernatants were added to microtiter plates containing suspensions of activated charcoal (Darco G-60, Fisher Scientific) and mixed by inversion. Plates were then centrifuged to separate ^3H—H2O product from charcoal-bound reactants. Supernatants were quantitated in a Perkin Elmer Topcount 384 after solubilization in ScintiSafe Plus 50% (Fisher Scientific).
Inhibition (%) of SCD activity by compounds was calculated according to the following formula: % Inhibition=100*[1−(CPMsample−CPMblank)/(CPMtotal−CPMblank)]
A general note: Liver microsomes are vesicles of endoplasmic reticulum, rich in cytochrome P450 enzymes.
For `NC(=O)c1cc(-c2ccc(OCc3cccc(F)c3)cc2)no1` [Example 16, 3-[4-(3-Fluoro-benzyloxy)-phenyl]-isoxazole-5-carboxylic acid amide], the IC50 (in general, the concentration that gives 50% inhibition) was 0.45 µM.

Regarding `Cc1ccc(Cl)cc1OCc1ccc(-c2cc(C(N)=O)on2)cc1` [Example 40, 3-[4-(5-Chloro-2-methyl-phenoxymethyl)-phenyl]-isoxazole-5-carboxylic acid amide], the IC50 was found to be 0.14 µM.

For `Cc1c(Cl)cccc1OCc1ccc(-c2cc(C(N)=O)on2)cc1` [Example 41, 3-[4-(3-Chloro-2-methyl-phenoxymethyl)-phenyl]-isoxazole-5-carboxylic acid amide], the IC50 was 0.39 µM.

As for `Cc1cc(F)ccc1OCc1ccc(-c2cc(C(N)=O)on2)cc1` [Example 42, 3-[4-(4-Fluoro-2-methyl-phenoxymethyl)-phenyl]-isoxazole-5-carboxylic acid amide], the IC50 was determined as 0.28 µM.

`Cc1ccc(F)cc1OCc1ccc(-c2cc(C(N)=O)on2)cc1` [Example 43, 3-[4-(5-Fluoro-2-methyl-phenoxymethyl)-phenyl]-isoxazole-5-carboxylic acid amide]: the IC50 was determined as 0.055 µM.

Take `Cc1ncccc1OCc1ccc(-c2cc(C(N)=O)on2)cc1` [Example 44, 3-[4-(2-Methyl-pyridin-3-yloxymethyl)-phenyl]-isoxazole-5-carboxylic acid amide]: the IC50 was found to be 1.1 µM.

For the molecule `NC(=O)c1cc(-c2ccc(CN3CCc4ccccc43)cc2)no1` [Example 45, 3-[4-(2,3-Dihydro-indol-1-ylmethyl)-phenyl]-isoxazole-5-carboxylic acid amide], the IC50 is 0.031 µM.

Turning to `NC(=O)c1cc(-c2ccc(CN3Cc4ccccc4C3)cc2)no1` [Example 46, 3-[4-(1,3-Dihydro-isoindol-2-ylmethyl)-phenyl]-isoxazole-5-carboxylic acid amide], the IC50 was 2.8 µM.

As for `NC(=O)c1cc(-c2ccc(Cn3ccc4ccccc43)cc2)no1` [Example 47, 3-(4-Indol-1-ylmethyl-phenyl)-isoxazole-5-carboxylic acid amide], the IC50 was 0.017 µM.

Take `NC(=O)c1cc(-c2ccc(Cn3nnc4ccccc43)cc2)no1` [Example 48, 3-(4-Benzotriazol-1-ylmethyl-phenyl)-isoxazole-5-carboxylic acid amide]: the IC50 turned out to be 0.23 µM.

On to `NC(=O)c1cc(-c2ccc(Cn3cnc4ccccc43)cc2)no1` [Example 49, 3-(4-Benzoimidazol-1-ylmethyl-phenyl)-isoxazole-5-carboxylic acid amide], for which the 50% inhibitory concentration (IC50) came to 0.072 µM.

Consider `NC(=O)c1cc(-c2ccc(Cn3ncc4ccccc43)cc2)no1` [Example 50, 3-(4-Indazol-1-ylmethyl-phenyl)-isoxazole-5-carboxylic acid amide], for which the IC50 came out at 0.074 µM.

`NC(=O)c1cc(-c2ccc(Cn3cc4ccccc4n3)cc2)no1` [Example 51, 3-(4-Indazol-2-ylmethyl-phenyl)-isoxazole-5-carboxylic acid amide]: the IC50 was found to be 0.047 µM.

In the case of `NC(=O)c1cc(-c2ccc(CN3CCCc4ccccc43)cc2)no1` [Example 52, 3-[4-(3,4-Dihydro-2H-quinolin-1-ylmethyl)-phenyl]-isoxazole-5-carboxylic acid amide], the concentration for half-maximal inhibition (IC50) came out at 0.024 µM.

For `CC1Cc2ccccc2N1Cc1ccc(-c2cc(C(N)=O)on2)cc1` (stereo not drawn) [Example 53, 3-[4-(2-Methyl-2,3-dihydro-indol-1-ylmethyl)-phenyl]-isoxazole-5-carboxylic acid amide], the IC50 worked out at 0.1 µM.

On to `Cc1cccc2c1ccn2Cc1ccc(-c2cc(C(N)=O)on2)cc1` [Example 54, 3-[4-(4-Methyl-indol-1-ylmethyl)-phenyl]-isoxazole-5-carboxylic acid amide], for which the IC50 came out at 0.22 µM.

On to `NC(=O)c1cc(-c2ccc(OCc3ccccc3C(F)(F)F)c(Cl)c2)no1` [Example 55, 3-[3-Chloro-4-(2-trifluoromethyl-benzyloxy)-phenyl]-isoxazole-5-carboxylic acid amide], for which the IC50 was 2.7 µM.

Tested on in the next data set: not given
Test: not given
Conditions: not given
Turning to `NC(=O)c1cc(-c2ccc(OCc3cccc(F)c3)cc2)no1` [Example 16, 3-[4-(3-Fluoro-benzyloxy)-phenyl]-isoxazole-5-carboxylic acid amide], the melting point – broadly, the temperature, or range, at which the solid turns liquid – is 221 to 222 °C.
